Laboratory results published in patent publication US20140193827A1 (TEVA PHARMACEUTICAL INDUSTRIES, LTD., priority 2013, published 2014).

Test system: GA-primed murine splenocytes
Test: ANOVA-based pattern identification method
Type: cell-based, mouse
Settings: UP IN generic ONLY
Source text: We sought to identify probes matching specific patterns of expression across experimental conditions using a technique that referred to as the ANOVA-based Pattern Identification Method.
To carry out the analysis in a general manner, we computed the 6 p-values required to do pairwise comparisons of all 4 conditions for all probes using the ANOVA1 function in MATLAB. We then identified sets of probes matching the desired pattern. In the example above, probes were identified as being only affected by PG if their 6 pairwise comparison pvalues matched the following pattern (pGA-PG<0.05, pPG-reference standard<0.05, pPG-Medium<0.05, pGAMedium>0.05, pGA-reference standard>0.05, preference standard-Medium>0.05).

glatiramer acetate [GA]
4930544L04RIK expression: 5.873
4933437N03RIK expression: 6.099
5330403O16RIK expression: 5.716
5730472N09RIK expression: 7.649
5830457O10RIK expression: 9.145
5930400G23RIK expression: 5.875
6330579M01RIK expression: 5.814
6430709H04RIK expression: 5.642
6720407G21RIK expression: 5.543
8030455F02RIK expression: 5.766
9030624J02RIK expression: 9.517
9130011J15RIK expression: 8.444
9330104G04RIK expression: 5.71
9330158H04RIK expression: 5.699
9330183F02RIK expression: 5.986
9430003J03RIK expression: 6.25
9430078K10RIK expression: 6.125
9430088N01RIK expression: 6.673
11110020P15RIK expression: 12.88
A4GALT expression: 5.801
A230005A19RIK expression: 5.83
A230084A06RIK expression: 5.804
ADAL expression: 6.367
ADAR expression: 8.858
ADPRHL2 expression: 6.783
AI844366 expression: 5.793
AKT2 expression: 5.919
ALOX15 expression: 5.968
ARFGAP2 expression: 9.429
ARVCF expression: 5.727
ATG3 expression: 5.593
ATP9B expression: 5.92
ATP13A1 expression: 9.018
ATPBD3 expression: 6.569
B930062B16RIK expression: 6.038
BC017612 expression: 7.394
BC031853 expression: 6.952
BC037704 expression: 7.193
BC040758 expression: 6.077
BCKDK expression: 9.485
BCL2L2 expression: 5.792
BCL2L12 expression: 6.997
BLCAP expression: 8.164
BPHL expression: 5.714
BTRC expression: 7.946
BZRPL1 expression: 6.203
C130040D06RIK expression: 5.711
C230062L16RIK expression: 6.189
C230092H20RIK expression: 5.902
C730048C13RIK expression: 5.941
C920004C08RIK expression: 11.38
CAPZB expression: 5.854
CAR6 expression: 5.68
CBARA1 expression: 7.517
CCL2 expression: 5.834
CD44 expression: 5.953
CD151 expression: 7.186
CDC42BPB expression: 7.153
CDCA1 expression: 5.663
CEBPE expression: 6.204
CENTD3 expression: 7.76
CHGA expression: 5.756
CHRM2 expression: 5.589
CLCN1 expression: 5.787
CLCNKB expression: 5.956
CLEC4A3 expression: 6.547
CNGA4 expression: 6.005
CNTLN expression: 5.647
COBLL1 expression: 7.08
COL4A1 expression: 6.209
COQ6 expression: 9.965
COQ9 expression: 8.284
COTL1 expression: 12.24
CTNNA3 expression: 5.701
CXCL14 expression: 5.622
CYGB expression: 6.119
D0HXS9928E expression: 9.848
D11WSU47E expression: 7.068
D130017N08RIK expression: 6.061
D430013G08RIK expression: 5.658
DACH1 expression: 5.874
DBF4 expression: 8.57
DHDH expression: 7.454
DNAHC17 expression: 5.838
DNM3 expression: 5.71
DUS2L expression: 6.953
E030016N13RIK expression: 6.199
E330037I15RIK expression: 6.256
EFCAB6 expression: 5.61
EG665903 expression: 5.547
ENAH expression: 5.919
EPM2A expression: 5.76
F830116E18RIK expression: 5.893
FAHD1 expression: 7.177
FAM123A expression: 5.862
FBXL15 expression: 7.284
FBXL21 expression: 5.656
FGR expression: 6.972
FOXE1 expression: 5.777
FOXP4 expression: 6.284
FRY expression: 5.74
GABRG1 expression: 5.55
GM628 expression: 5.746
GPAA1 expression: 7.442
GPR106, LGR8, GPCR expression: 5.814
GSTK1 expression: 8.386
GYPA expression: 6.898
HIST2H2AA1 expression: 6.224
HMGCL expression: 7.958
HOXC10 expression: 6.132
HSD3B2 expression: 5.776
HTATIP2 expression: 8.787
INTS7 expression: 9.311
ISCA1 expression: 9.378
ITFG2 expression: 8.148
ITGA2B expression: 6.451
JPH1 expression: 5.671
KCNC3 expression: 5.962
KIF17 expression: 5.897
KLHDC3 expression: 7.853
KREMEN2 expression: 6.223
KRTCAP2 expression: 12.5338
LOC223628 expression: 5.598
LOC277049 expression: 5.915
LOC277236 expression: 5.977
LOC332300 expression: 6.243
LOC380636 expression: 5.566
